Like-named read-outs stand apart in the source and are kept apart here.
Legend:
PGL3 5′UTR = assay: Secondary (counterscreen) luciferase assay in H4-C cells, IRE stem-loop removed; assay type: cell-based, human; conditions: versus SNCA 5′UTR
[1] = system: PrP-5′UTR (prion protein IRE); assay type: cell-based, human; conditions: versus SNCA 5′UTR
alpha-synuclein = assay: ELISA secondary screen for alpha-synuclein in SH-SY5Y cells; assay type: cell-based, human; set-up: Decrease syn(%) SHSY5Y cells: unit of the concentration uncertain; conditions: for Decrease αsyn(%) SHSY5Y cells: Table 2; for Decrease syn(%) SHSY5Y cells: Table 3
Description: FIG. 2 illustrates the results of ELISA experiments with compound 10 in SH-SY5Y cells. […]
FIG. 18 illustrates alpha Synuclein ELISA (Invitrogen) measurements from SHSY5 undifferentiated neurons treated with the indicated doses (triplicate wells) of compounds 2, 13, 11, 14, 15, and 16) for 48 h.
A human ASYN ELISA kit was utilized for all ELISA experiments (Invitrogen alpha-synuclein ELISA kit KHB0061) and the kit protocol was followed.
1) Plate SH-SY5Y […] cells (Corning, 3570) at 10,000 cells/well in 50 μL phenol red free media (phenol red-free DMEM with 4.5 g/L D-glucose [Lonza, 12-917F] supplemented with 10% FBS [Lonza, 14-503E], 200 μM L-glutamine [Lonza, 17-605E], 100 μM penstrep [Lonza, 17-602E] and 200 μg/mL geneticin [Invitrogen, 10131-027]).
2) Lid plates, then incubate cells for 24 hours at 37° C., 5% CO2, 95% humidity in a tissue culture incubator.
3) Pin 100 nL of each compound into the assay plates spanning a final concentration range from 100-0.006 μM.
4) Incubate plates for 48 h at 37° C., 5% CO2, 95% humidity. Following incubation, add 5 μL of Alamar blue solution per well and allow to incubate for 1 h at 37° C., 5% CO2, 95% humidity.
5) Read Alamar blue fluorescence using a Thermo Varioskan (570 nm excitation, 585 nm emission). Remove cell media and add 30 μL cell lysis solution with protease inhibitor (G Biosciences, 786-331; 10 μL/mL).
6) Place plates on a plate shaker for 1 h, before removing 20 μL lysate. Transfer cell lysates to 500 μL Eppendorf tubes and centrifuge (Eppendorf Centrifuge 5417C) for 10 min at 13,000 rpm.
7) Add 12 μL of the cell supernatant to 48 μL of standard diluent buffer (1:5). Add these samples to ELISA plate wells. Prepare ASYN standard curve wells as described in the kit manual.
8) Add 50 μL of anti-α-Synuclein (Detection Antibody) solution to each well, tapping the plate to mix. Cover the plate with a tape seal and incubate for 3 h at RT.
9) Wash wells four times with wash buffer using a multichannel pipette and add 100 μL of anti-rabbit IgG-HRP antibody solution to each well. Cover the plate and incubate for 30 min at RT. Wash wells four times with wash buffer and add 100 μL of Stabilized Chromogen to each well. Seal the plate and incubate in the dark at RT for 30 min.
10) Finally, add 100 μL of Stop Solution to each well, tapping the plate to mix, and read absorbance at 450 nm using an Envision plate reader (Perkin Elmer).

[2] = system: alpha-synuclein 5′-UTR IRE (SNCA 5′UTR); assay: Primary screen/retest: ASYN 5′-UTR IRE-driven luciferase expression in H4 cells; assay type: cell-based, human; conditions: Homo sapiens, 48 h
α-Synuclein [3] = assay: Western blots of α-syn in iPSC derived DA neuron lysates; assay type: cell-based, human; conditions: 72 h; for inhibition of α-Synuclein protein expression versus β-Syn, γ-Syn, Ferritin, APP and Prion proteins: 1 μM, normalized to β-Actin; for α-syn levels (Western blot): 10 μM and 1 μM compound, β-actin standardized, N=3
α-Synuclein [4] = assay: Decrease of α-syn in iPSC derived DA neurons; assay type: cell-based, human; set-up: Decrease syn(%) DA neurons: dose or concentration left out as unconfirmed; conditions: for Decrease αsyn(%) DA neurons: Table 2, @ 1 μM; for Decrease syn(%) DA neurons: Table 3
α-Syn = assay: Decrease of α-syn in Triple SNCA cortical neurons; conditions: Table 2; concentration not given
[5] = Table 2, H4 cells, luciferase, read-out: IC50/μM (SNCA 5′UTR)
[6] = Table 3, H4 cells, luciferase, read-out: IC50/M (SNCA 5′UTR)

| SMILES | Selectivity PGL3 5′UTR (PGL3 5′UTR; Table 2) | Selectivity PrP-5′UTR ([1]; Table 2) | IC50 [2, 5] | Selectivity PGL3 5′UTR (PGL3 5′UTR; Table 3) | Selectivity PrP-5′UTR ([1]; Table 3) | IC50 [2, 6] | further results |
| --- | --- | --- | --- | --- | --- | --- | --- |
| COc1cccc(N2CCN(C(=O)c3ccc(C[S+]([O-])c4ccc(C)cc4)o3)CC2)c1 (stereo not drawn) [Compound 1, (4-(3-methoxyphenyl)piperazin-1-yl)(5-((p-tolylsulfinyl)methyl)furan-2-yl)methanone] | 58-fold | 126-fold | 0.1 µM |  |  |  | Decrease αsyn(%) SHSY5Y cells (alpha-synuclein; @ 1 μM): 14-28 @ 1% |
| COC(=O)C1CC23C=CCN4CCC5(c6ccccc6NC15C2C)C43 (stereo not drawn) [Compound 3, methyl 14-methyl-4,5,11,12-tetrahydro-1H,3a^1H,6H-3a,5a-methanoindolizino[8,1-cd]carbazole-5-carboxylate] | 31-fold | 17-fold |  | 31-fold | 17-fold |  | inhibition of α-Synuclein protein expression versus β-Syn, γ-Syn, Ferritin, APP and Prion proteins (α-Synuclein [3]): selectively inhibit; α-syn levels (Western blot) (α-Synuclein [3]): reduced; Decrease αsyn(%) DA neurons (α-Synuclein [4]): 60 @ 1 μM %; Decrease syn(%) DA neurons (α-Synuclein [4]): 60 @ 1M %; Decrease αsyn(%) SHSY5Y cells (alpha-synuclein; @ 1-10 μM): 15-19 @ 1-10%; Decrease syn(%) SHSY5Y cells (alpha-synuclein; @ 1-10M): 15-19 @ 1-10M %; IC50 ([2]; read-out: IC50/M (SNCA 5′UTR)): 0.134 µM; IC50 ([2]; read-out: IC50/μM (SNCA 5′UTR)): 0.134 µM; Decrease αsyn(%) X3 SNCA neurons (α-Syn): 50% |
| Cc1cc(C)cc(Nc2nc3ccc(C)cc3n3cnnc23)c1 [Compound 4, N-(3,5-dimethylphenyl)-8-methyl-[1,2,4]triazolo[4,3-a]quinoxalin-4-amine] | 43-fold | 18-fold | 2.8 µM |  |  |  | Decrease αsyn(%) SHSY5Y cells (alpha-synuclein; @ 1 μM): 25-50 @ 1% |
| COc1ccc(/C=C/C(=O)c2cc(F)ccc2OC(=O)c2ccccc2)cc1OC [Compound 5, (E)-2-(3-(3,4-dimethoxyphenyl)acryloyl)-4-fluorophenyl benzoate] | 66-fold | Inc. | 0.194 µM |  |  |  | Decrease αsyn(%) SHSY5Y cells (alpha-synuclein; @ 0.1 μM): 20-50 @ 0.1% |
| O=C(c1ccc(C[S+]([O-])c2ccccc2Cl)o1)N1CCN(c2ccccc2)CC1 (stereo not drawn) [Compound 6, (5-(((2-chlorophenyl)sulfinyl)methyl)furan-2-yl)(4-phenylpiperazin-1-yl)methanone] | 80-fold | Inc. | 0.1 µM |  |  |  | Decrease αsyn(%) SHSY5Y cells (alpha-synuclein; @ 0.1-1 μM): 21-42 @ 0.1-1% |
| CCC1=Nc2cc(C(=O)NCCCOC)ccc2Sc2ccccc21 [Compound 7, 11-ethyl-N-(3-methoxypropyl)dibenzo[b,f][1,4]thiazepine-8-carboxamide] | 68-fold | 127-fold | 0.127 µM |  |  |  | Decrease αsyn(%) SHSY5Y cells (alpha-synuclein; @ 1 μM): 30-60 @ 1% |
| CCOC(=O)c1[nH]c(C)c(C(=O)c2cc(F)ccc2F)c1C [Compound 8, ethyl 4-(2,5-difluorobenzoyl)-3,5-dimethyl-1H-pyrrole-2-carboxylate] | 53-fold | 58-fold | 0.2 µM |  |  |  | Decrease αsyn(%) SHSY5Y cells (alpha-synuclein; @ 0.1-1 μM): 20-40 @ 0.1-1% |
| COC(=O)c1c(NC(=O)c2ccc([N+](=O)[O-])o2)sc2c1CCN(C(C)C)C2 [Compound 9, methyl 6-isopropyl-2-(5-nitrofuran-2-carboxamido)-4,5,6,7-tetrahydrothieno[2,3-c]pyridine-3-carboxylate] | 1,200-fold |  |  | 1,200-fold |  |  | inhibition of α-Synuclein protein expression versus β-Syn, γ-Syn, Ferritin, APP and Prion proteins (α-Synuclein [3]): selectively inhibit; α-syn levels (Western blot) (α-Synuclein [3]): reduced; Decrease αsyn(%) DA neurons (α-Synuclein [4]): 90 @ 1 μM %; Decrease syn(%) DA neurons (α-Synuclein [4]): 90 @ 1M %; IC50 ([2]; read-out: IC50/M (SNCA 5′UTR)): 0.1 µM; IC50 ([2]; read-out: IC50/μM (SNCA 5′UTR)): 0.1 µM |
| CN(C)c1nc(N)nc(CSc2nnnn2-c2cccc3ccccc23)n1 [Compound 10, N^2,N^2-dimethyl-6-(((1-(naphthalen-1-yl)-1H-tetrazol-5-yl)thio)methyl)-1,3,5-triazine-2,4-diamine] | 34-fold | 35-fold |  | 34-fold | 35-fold |  | inhibition of α-Synuclein protein expression versus β-Syn, γ-Syn, Ferritin, APP and Prion proteins (α-Synuclein [3]): selectively inhibit; α-syn levels (Western blot) (α-Synuclein [3]): reduced; Decrease αsyn(%) DA neurons (α-Synuclein [4]): 60 @ 1 μM %; Decrease syn(%) DA neurons (α-Synuclein [4]): 60 @ 1M %; Decrease αsyn(%) SHSY5Y cells (alpha-synuclein; @ 0.1 μM): 19-38 @ 0.1%; Decrease syn(%) SHSY5Y cells (alpha-synuclein; @ 0.1 µM): 19-38 @ 0.1M %; IC50 ([2]; read-out: IC50/M (SNCA 5′UTR)): 1.8 to 3.5 µM; IC50 ([2]; read-out: IC50/μM (SNCA 5′UTR)): 1.8 to 3.5 µM; Decrease αsyn(%) X3 SNCA neurons (α-Syn): 25% |
| O=C(c1ccc(C[S+]([O-])c2ccccc2Cl)o1)N1CCN(c2ccccc2)CC1 (stereo not drawn) [Compound 12, 1-(5-{[(2-Chlorophenyl)sulfinyl]methyl}-2-furoyl)-4-phenylpiperazine] |  |  |  | 80-fold | Inc. | 0.1 µM | Decrease syn(%) SHSY5Y cells (alpha-synuclein; @ 0.1-1M): 21-42 @ 0.1-1M % |
| CCOC(=O)c1[nH]c(C)c(C(=O)c2cc(F)ccc2F)c1C [Compound 13, Ethyl 4-(2,5-difluorobenzoyl)-3,5-dimethyl-1H-pyrrole-2-carboxylate] |  |  |  | 53-fold | 58-fold | 0.2 µM | Decrease syn(%) SHSY5Y cells (alpha-synuclein; @ 0.1-1M): 20-40 @ 0.1-1M % |
| COc1ccc(/C=C/C(=O)c2cc(F)ccc2OC(=O)c2ccccc2)cc1OC [Compound 14, 2-[(2E)-3-(3,4-dimethoxyphenyl)prop-2-enoyl]-4-fluorophenyl benzoate] |  |  |  | 66-fold | Inc. | 0.194 µM | Decrease syn(%) SHSY5Y cells (alpha-synuclein; @ 0.1 µM): 20-50 @ 0.1M % |
| Cc1cc(C)cc(Nc2nc3ccc(C)cc3n3cnnc23)c1 [Compound 15, N-(3,5-dimethylphenyl)-8-methyl[1,2,4]triazolo[4,3-a]quinoxalin-4-amine] |  |  |  | 43-fold | 18-fold | 2.8 µM | Decrease syn(%) SHSY5Y cells (alpha-synuclein; @ 1 µM): 25-50 @ 1M^ % |
| CCC1=Nc2cc(C(=O)NCCCOC)ccc2Sc2ccccc21 [Compound 16, 11-ethyl-N˜8˜-(3-methoxypropyl)dibenzo[b,f][1,4]thiazepine-8-carboxamide] |  |  |  | 68-fold | 127-fold | 0.127 µM | Decrease syn(%) SHSY5Y cells (alpha-synuclein; @ 1 µM): 30-60 @ 1M^ % |
